Measurements reported in patent publication US20050070468A1, “Use of fk506 and analogues for treating allergic diseases” (SUCAMPO AG, priority 2001, published 2005).

System: Patients with allergic conjunctivitis
Test: Antigen instillation into the eye of patients with allergic conjunctivitis; itchiness of the eye scored in 9 levels, improvement rate versus base line
Assay type: in vivo, human
Conditions: for improvement (%) of group with pre-administration: once a day for one week, antigen given 16 hr after last instillation; for improvement (%) of group with pre-administration / improvement (%) of group without pre-administration: itchiness 3 min later, proportion of patients with at least 1 point lower itchiness than base line; for improvement (%) of group without pre-administration: single instillation, antigen given 8 hr after instillation
Protocol: Patients with allergic conjunctivitis (3 groups, 30 patients per group) were instilled with an antigen into the eye. Three minutes later, itchiness of the eye was evaluated in 9 levels (0, 0.5, 1, 1.5, 2, 2.5, 3, 3.5, 4), and the average value (base line group) of itchiness was determined. A specific antigen was determined for each patient. […] At least one week was allowed to lapse from the test of Method 1, and FK506 eye drop (suspension) [0.03%, 0.06% or 0.1%] was instilled into the eye of the patients. At 8 hr after the instillation of the eye drop, the antigen was given. Three minutes later, itchiness of the eye was evaluated in the same manner as in Method 1, and the average value (without pre-administration) of itchiness was determined. […] At least one week was allowed to lapse from the test of Method 2, and FK506 eye drop was instilled into the eye of the patients once a day for one week. At 16 hr after the last instillation of the eye drop, the antigen was given. Three minutes later, itchiness of the eye was evaluated in the same manner as in Method 1, and the average value (with pre-administration) of itchiness was determined.

## C=CC[C@@H]1/C=C(\C)C[C@H](C)C[C@H](OC)[C@H]2O[C@@](O)(C(=O)C(=O)N3CCCC[C@H]3C(=O)O[C@H](/C(C)=C/[C@@H]3CC[C@@H](O)[C@H](OC)C3)[C@H](C)[C@@H](O)CC1=O)[C@H](C)C[C@@H]2OC [FK506, 17-allyl-1,14-dihydroxy-12-[2-(4-hydroxy-3-methoxycyclohexyl)-1-methylvinyl]-23,25-dimethoxy-13,19,21,27-tetramethyl-11,28-dioxa-4-azatricyclo-[22.3.1.0^4,9]octacos-18-ene-2,3,10,16-tetraone]
0.1% concentration groups
  improvement rate of the group with pre-administration after 16 hr compared with the group without pre-administration after 8 hr: markedly higher
FK506 eye drop 0.03%
  improvement (%) of group with pre-administration: 61.54%
FK506 eye drop 0.06%
  improvement (%) of group with pre-administration: 65.52%
FK506 eye drop 0.1%
  improvement (%) of group with pre-administration: 72.41%
FK506 eye drop (suspension) 0.03%
  improvement (%) of group without pre-administration: 25.93%
FK506 eye drop (suspension) 0.06%
  improvement (%) of group without pre-administration: 40.00%
FK506 eye drop (suspension) 0.1%
  improvement (%) of group without pre-administration: 56.67%
With versus without pre-administration, all concentrations
  improvement effect on the itchiness by setting a leading period for pre-administration: strikingly enhanced
